For two molecules, Drug uptake and Ratio results are on record in ChEMBL document CHEMBL1932963, “Mitochondrial targeting of a cationic amphiphilic polyproline helix” (Bioorg Med Chem Lett, 2012).

The nature of data set [1]: Cellular uptake in human HeLa cell mitochondria using mitotracker dye at 5 uM after 4 hrs. It is filed as ADME.
The nature of data set [2]: Cellular uptake in human HeLa cell mitochondria using mitotracker dye at 1 uM after 4 hrs. It is filed as ADME.
In data set [3] the test system is HeLa. As to the kind of experiment: Cellular uptake in human HeLa cells at 5 uM after 4 hrs by flow cytometry relative control. It is filed as ADME, cell-based. In general terms: Flow cytometry measures light scatter and fluorescence of single cells or particles in a stream.
Data set [4] can be described thus: Cellular uptake in human HeLa cell mitochondria using mitotracker dye at 5 uM after 1 hr by confocal microscopy in presence of FCCP. It is filed as ADME.
Data set [5] is described as follows: Cellular uptake in human HeLa cell lysosomes using LysoTracker dye at 1 uM after 4 hrs. It is filed as ADME, cell-based, Lysosome.
Data set [6] is described as follows: Cellular uptake in human HeLa cell lysosomes using LysoTracker dye at 5 uM after 1 hr by confocal microscopy in presence of FCCP. It is filed as ADME, cell-based, Lysosome.
Data set [7] concerns HeLa. As to the kind of experiment: Cellular uptake in human HeLa cells after 4 hrs by flow cytometry. It is filed as ADME, cell-based.
Data set [8] can be described thus: Cellular uptake in human HeLa cell mitochondria using mitotracker dye at 5 uM after 30 mins. It is filed as ADME. The following applies: 0.5 h.
In data set [9] the test system is HeLa. As to the kind of experiment: Cellular uptake in human HeLa cells assessed as increase in cellular fluorescence at 5 uM after 4 hrs by flow cytometry relative to control. It is filed as ADME, cell-based.
A short description of data set [10]: Cellular uptake in human HeLa cell cytosol at 5 uM after 1 hr by confocal microscopy in presence of FCCP. It is filed as ADME, cell-based.
In data set [11] the test system is HeLa. Description: Cellular uptake in human HeLa cells up to 2.5 uM after 4 hrs by flow cytometry. It is filed as ADME, cell-based.

As for `CC(C)CO[C@H]1C[C@H](C(=O)N2C[C@@H](OCCCNC(=N)N)C[C@@H]2C(=O)N2C[C@@H](OCCCNC(=N)N)C[C@@H]2C(=O)N2C[C@@H](OCC(C)C)C[C@@H]2C(=O)N2C[C@@H](OCCCNC(=N)N)C[C@@H]2C(=O)N2C[C@@H](OCCCNC(=N)N)C[C@@H]2C(=O)N2C[C@@H](OCC(C)C)C[C@@H]2C(N)=O)N(C[C@H]2C[C@H](OCCCNC(=N)N)CN2C(=O)[C@H]2C[C@H](OCCCNC(=N)N)CN2C(=O)[C@H]2C[C@H](OCC(C)C)CN2C(=O)[C@H]2C[C@H](OCCCNC(=N)N)CN2C(=O)[C@H]2C[C@H](OCCCNC(=N)N)CN2C(=O)[C@H]2C[C@H](OCC(C)C)CN2C(=O)CNC(=O)c2cccc(-c3c4ccc(=O)cc-4oc4cc(O)ccc34)c2C(=O)O)C1`, the Drug uptake entry in data set [1] was “Active”; in data set [2], “Active”; in [4], “Not Active”; in data set [5], “Active”; in data set [6], “Active”; in the data set on HeLa [7], “Dose-dependent effect”. The Drug uptake result in data set [8] and in [10] was “Active” throughout. The results for the Ratio in the data set on HeLa [3] and in the data set with HeLa [9] were 7.5 and 14, respectively.
In the case of `N=C(N)NCCC[C@H](NC(=O)[C@H](CCCNC(=N)N)NC(=O)[C@H](CCCNC(=N)N)NC(=O)[C@H](CCC(N)=O)NC(=O)[C@H](CCCNC(=N)N)NC(=O)[C@H](CCCNC(=N)N)NC(=O)[C@H](CCCCN)NC(=O)[C@H](CCCCN)NC(=O)[C@H](CCCNC(=N)N)NC(=O)CNC(=O)[C@H](Cc1ccc(O)cc1)NC(=O)c1ccccc1-c1c2ccc(=O)cc-2oc2cc(O)ccc12)C(N)=O`, in the data set with HeLa [11], the Drug uptake entry is on record as “Not Active”.
